# Results as given in patent US20250235460A1, “COMBINATION THERAPY USING GLUCOSE-DEPENDENT INSULINOTROPIC POLYPEPTIDE RECEPTOR ANTAGONIST COMPOUNDS AND GLP-1 RECEPTOR AGONIST COMPOUNDS” (Pfizer Inc., priority 2024, published 2025).
# Tests used:
# human GLP-1R [1] = molecular target: human GLP-1R (Homo sapiens, UniProt P43220, L260F); assay: CHO GLP-1R Clone C6 cAMP HTRF agonist assay (Assay 2, low receptor density); assay type: cell-based; conditions: for EC50: CHO GLP-1R clone C6, cAMP HTRF, geometric mean
# Source text: In Table 5 and Table 6, assay data are presented to two (2) significant figures as the geometric mean (EC50s) and arithmetic mean (Emax) based on the number of replicates listed (Number). A blank cell means there was no data for that Example or the Emax was not calculated.
# human GLP-1R [2] = molecular target: human GLP-1R (Homo sapiens, UniProt P43220, G168S); assay: CHO GLP-1R Clone H6 cAMP HTRF agonist assay (Assay 1, high receptor density); assay type: cell-based; conditions: for EC50: CHO GLP-1R clone H6, cAMP HTRF, geometric mean; for Emax: CHO GLP-1R clone H6, arithmetic mean, relative to saturating GLP-1 (1 μM), read-out: Assay 1 Emax (%)
# Summary of the method: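 Two significant figures are used throughout. Each EC50 is the geometric mean of its replicates, and each Emax is the arithmetic mean.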
# [3] = CHO GLP-1R clone C6, arithmetic mean, relative to saturating GLP-1 (1 μM)
# Sequence of human GLP-1R (Homo sapiens, UniProt P43220, L260F) (P43220 24-463 L260F): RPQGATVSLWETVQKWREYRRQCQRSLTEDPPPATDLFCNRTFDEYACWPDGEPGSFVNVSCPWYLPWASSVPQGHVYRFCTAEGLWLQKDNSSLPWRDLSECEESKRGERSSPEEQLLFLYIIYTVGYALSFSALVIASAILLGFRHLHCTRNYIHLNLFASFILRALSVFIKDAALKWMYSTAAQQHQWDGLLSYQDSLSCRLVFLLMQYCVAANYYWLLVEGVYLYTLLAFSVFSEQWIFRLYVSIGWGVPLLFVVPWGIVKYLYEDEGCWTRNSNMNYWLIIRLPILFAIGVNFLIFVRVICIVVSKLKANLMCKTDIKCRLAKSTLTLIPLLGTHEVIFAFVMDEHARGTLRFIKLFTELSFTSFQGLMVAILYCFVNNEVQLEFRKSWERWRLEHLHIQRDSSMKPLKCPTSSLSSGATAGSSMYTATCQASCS
# Sequence of human GLP-1R (Homo sapiens, UniProt P43220, G168S) (P43220 24-463 G168S): as the sequence (P43220 24-463 L260F) above, with G145S, F237L counted along it
compound,measurement,setting,value
"CCn1c(CN2CCC(c3cccc(OCc4ccc(Cl)cc4F)n3)CC2)nc2ccc(C(=O)O)cc21 [Compound 257B, 2-[(4-{6-[(4-chloro-2-fluorobenzyl)oxy]pyridin-2-yl}piperidin-1-yl)methyl]-1-ethyl-1H-benzimidazole-6-carboxylic acid]",EC50,human GLP-1R [1],88 nM
same,Emax,human GLP-1R [1]; [3],82%
same,EC50,human GLP-1R [2],8.6 nM
same,Emax,human GLP-1R [2],78%
"CC(C)n1c(CN2CCC(c3cccc(OCc4ccc(Cl)cc4F)n3)CC2)nc2ccc(C(=O)O)cc21 [Compound 258B, 2-[(4-{6-[(4-chloro-2-fluorobenzyl)oxy]pyridin-2-yl}piperidin-1-yl)methyl]-1-(propan-2-yl)-1H-benzimidazole-6-carboxylic acid]",EC50,human GLP-1R [1],9.7 nM
same,Emax,human GLP-1R [1]; [3],100%
same,EC50,human GLP-1R [2],0.9 nM
same,Emax,human GLP-1R [2],94%
"CC(C)(C)n1cnnc1Cn1c(CN2CCC(c3cccc(OCc4ccc(Cl)cc4F)n3)CC2)nc2ccc(C(=O)O)cc21 [Compound 259B, 1-[(4-tert-butyl-4H-1,2,4-triazol-3-yl)methyl]-2-[(4-{6-[(4-chloro-2-fluorobenzyl)oxy]pyridin-2-yl}piperidin-1-yl)methyl]-1H-benzimidazole-6-carboxylic acid]",EC50,human GLP-1R [1],13 nM
same,Emax,human GLP-1R [1]; [3],91%
same,EC50,human GLP-1R [2],0.95 nM
same,Emax,human GLP-1R [2],95%
"C[C@H]1CN(c2cccc(OCc3ccc(C#N)cc3)n2)CCN1Cc1nc2ccc(C(=O)O)cc2n1C[C@@H]1CCO1 [Compound 261B, 2-{[(2S)-4-{6-[(4-cyanobenzyl)oxy]pyridin-2-yl}-2-methylpiperazin-1-yl]methyl}-1-[(2S)-oxetan-2-ylmethyl]-1H-benzimidazole-6-carboxylic acid]",Assay 2 Emax (%),human GLP-1R [1]; [3],120%
same,Emax,human GLP-1R [2],100%
"O=C(O)c1ccc2nc(CN3CCC(c4cccc(OCc5ccc(Cl)cc5F)n4)CC3)n(CCO)c2c1 [Compound 262B, 2-[(4-{6-[(4-chloro-2-fluorobenzyl)oxy]pyridin-2-yl}piperidin-1-yl)methyl]-1-(2-hydroxyethyl)-1H-benzimidazole-6-carboxylic acid]",EC50,human GLP-1R [1],28 nM
same,Emax,human GLP-1R [1]; [3],88%
same,EC50,human GLP-1R [2],1.6 nM
same,Emax,human GLP-1R [2],83%
"CCc1nc(Cn2c(CN3CCC(c4cccc(OCc5ccc(Cl)cc5F)n4)CC3)nc3ccc(C(=O)O)cc32)no1 [Compound 263B, 2-[(4-{6-[(4-chloro-2-fluorobenzyl)oxy]pyridin-2-yl}piperidin-1-yl)methyl]-1-[(5-ethyl-1,2,4-oxadiazol-3-yl)methyl]-1H-benzimidazole-6-carboxylic acid]",EC50,human GLP-1R [1],670 nM
same,Emax,human GLP-1R [1]; [3],110%
same,EC50,human GLP-1R [2],33 nM
same,Emax,human GLP-1R [2],80%
"O=C(O)c1ccc2nc(CN3CCC(c4cccc(OCc5ccc(Cl)cc5F)n4)CC3)n(Cc3ccc(Cl)cn3)c2c1 [Compound 277B, 2-[(4-{6-[(4-chloro-2-fluorobenzyl)oxy]pyridin-2-yl}piperidin-1-yl)methyl]-1-[(5-chloropyridin-2-yl)methyl]-1H-benzimidazole-6-carboxylic acid]",EC50,human GLP-1R [1],230 nM
same,Emax,human GLP-1R [1]; [3],77%
same,EC50,human GLP-1R [2],8.1 nM
same,Emax,human GLP-1R [2],64%
"CCN1CCC(Cn2c(CN3CCC(c4cccc(OCc5ccc(Cl)cc5F)n4)CC3)nc3ccc(C(=O)O)cc32)C1 (stereo not shown) [Compound 278B, 2-[(4-{6-[(4-chloro-2-fluorobenzyl)oxy]pyridin-2-yl}piperidin-1-yl)methyl]-1-[(1-ethylpyrrolidin-3-yl)methyl]-1H-benzimidazole-6-carboxylic acid]",EC50,human GLP-1R [1],94 nM
same,Emax,human GLP-1R [1]; [3],92%
same,EC50,human GLP-1R [2],9.4 nM
same,Emax,human GLP-1R [2],69%
"CN1CCCC(Cn2c(CN3CCC(c4cccc(OCc5ccc(Cl)cc5F)n4)CC3)nc3ccc(C(=O)O)cc32)C1 (stereo not shown) [Compound 279B, 2-[(4-{6-[(4-chloro-2-fluorobenzyl)oxy]pyridin-2-yl}piperidin-1-yl)methyl]-1-[(1-methylpiperidin-3-yl)methyl]-1H-benzimidazole-6-carboxylic acid]",EC50,human GLP-1R [1],410 nM
same,Emax,human GLP-1R [1]; [3],75%
same,EC50,human GLP-1R [2],11 nM
same,Emax,human GLP-1R [2],71%
"O=C(O)c1ccc2nc(CN3CCC(c4cccc(OCc5ccc(Cl)cc5F)n4)CC3)n(CCC3CCCCO3)c2c1 (stereo not shown) [Compound 280B, 2-[(4-{6-[(4-chloro-2-fluorobenzyl)oxy]pyridin-2-yl}piperidin-1-yl)methyl]-1-[2-(tetrahydro-2H-pyran-2-yl)ethyl]-1H-benzimidazole-6-carboxylic acid]",EC50,human GLP-1R [1],380 nM
same,Emax,human GLP-1R [1]; [3],96%
same,EC50,human GLP-1R [2],11 nM
same,Emax,human GLP-1R [2],65%
"CC(C)c1cc(Cn2c(CN3CCC(c4cccc(OCc5ccc(Cl)cc5F)n4)CC3)nc3ccc(C(=O)O)cc32)on1 [Compound 281B, 2-[(4-{6-[(4-chloro-2-fluorobenzyl)oxy]pyridin-2-yl}piperidin-1-yl)methyl]-1-{[3-(propan-2-yl)-1,2-oxazol-5-yl]methyl}-1H-benzimidazole-6-carboxylic acid]",EC50,human GLP-1R [1],270 nM
same,Emax,human GLP-1R [1]; [3],92%
same,EC50,human GLP-1R [2],14 nM
same,Emax,human GLP-1R [2],80%
"CN1CCC(CCn2c(CN3CCC(c4cccc(OCc5ccc(Cl)cc5F)n4)CC3)nc3ccc(C(=O)O)cc32)CC1 [Compound 282B, 2-[(4-{6-[(4-chloro-2-fluorobenzyl)oxy]pyridin-2-yl}piperidin-1-yl)methyl]-1-[2-(1-methylpiperidin-4-yl)ethyl]-1H-benzimidazole-6-carboxylic acid]",EC50,human GLP-1R [1],230 nM
same,Emax,human GLP-1R [1]; [3],110%
same,EC50,human GLP-1R [2],15 nM
same,Emax,human GLP-1R [2],83%
"CN1CCC(Cn2c(CN3CCC(c4cccc(OCc5ccc(Cl)cc5F)n4)CC3)nc3ccc(C(=O)O)cc32)CC1 [Compound 283B, 2-[(4-{6-[(4-chloro-2-fluorobenzyl)oxy]pyridin-2-yl}piperidin-1-yl)methyl]-1-[(1-methylpiperidin-4-yl)methyl]-1H-benzimidazole-6-carboxylic acid]",EC50,human GLP-1R [1],270 nM
same,Emax,human GLP-1R [1]; [3],88%
same,EC50,human GLP-1R [2],15 nM
same,Emax,human GLP-1R [2],83%
"CN1CCCC1CCn1c(CN2CCC(c3cccc(OCc4ccc(Cl)cc4F)n3)CC2)nc2ccc(C(=O)O)cc21 (stereo not shown) [Compound 284B, 2-[(4-{6-[(4-chloro-2-fluorobenzyl)oxy]pyridin-2-yl}piperidin-1-yl)methyl]-1-[2-(1-methylpyrrolidin-2-yl)ethyl]-1H-benzimidazole-6-carboxylic acid]",EC50,human GLP-1R [1],270 nM
same,Emax,human GLP-1R [1]; [3],83%
same,EC50,human GLP-1R [2],18 nM
same,Emax,human GLP-1R [2],82%
"CN1CCCCC1Cn1c(CN2CCC(c3cccc(OCc4ccc(Cl)cc4F)n3)CC2)nc2ccc(C(=O)O)cc21 (stereo not shown) [Compound 285B, 2-[(4-{6-[(4-chloro-2-fluorobenzyl)oxy]pyridin-2-yl}piperidin-1-yl)methyl]-1-[(1-methylpiperidin-2-yl)methyl]-1H-benzimidazole-6-carboxylic acid]",EC50,human GLP-1R [1],200 nM
same,Emax,human GLP-1R [1]; [3],81%
same,EC50,human GLP-1R [2],21 nM
same,Emax,human GLP-1R [2],82%
"CN1CCOC(CCn2c(CN3CCC(c4cccc(OCc5ccc(Cl)cc5F)n4)CC3)nc3ccc(C(=O)O)cc32)C1 (stereo not shown) [Compound 286B, 2-[(4-{6-[(4-chloro-2-fluorobenzyl)oxy]pyridin-2-yl}piperidin-1-yl)methyl]-1-[2-(4-methylmorpholin-2-yl)ethyl]-1H-benzimidazole-6-carboxylic acid]",EC50,human GLP-1R [1],330 nM
same,Emax,human GLP-1R [1]; [3],96%
same,EC50,human GLP-1R [2],25 nM
same,Emax,human GLP-1R [2],78%
"COCCN1CCC(Cn2c(CN3CCC(c4cccc(OCc5ccc(Cl)cc5F)n4)CC3)nc3ccc(C(=O)O)cc32)CC1 [Compound 287B, 2-[(4-{6-[(4-chloro-2-fluorobenzyl)oxy]pyridin-2-yl}piperidin-1-yl)methyl]-1-{[1-(2-methoxyethyl)piperidin-4-yl]methyl}-1H-benzimidazole-6-carboxylic acid]",EC50,human GLP-1R [1],450 nM
same,Emax,human GLP-1R [1]; [3],89%
same,EC50,human GLP-1R [2],28 nM
same,Emax,human GLP-1R [2],80%
"COCCN1CCCC(Cn2c(CN3CCC(c4cccc(OCc5ccc(Cl)cc5F)n4)CC3)nc3ccc(C(=O)O)cc32)C1 (stereo not shown) [Compound 288B, 2-[(4-{6-[(4-chloro-2-fluorobenzyl)oxy]pyridin-2-yl}piperidin-1-yl)methyl]-1-{[1-(2-methoxyethyl)piperidin-3-yl]methyl}-1H-benzimidazole-6-carboxylic acid]",EC50,human GLP-1R [1],360 nM
same,Emax,human GLP-1R [1]; [3],89%
same,EC50,human GLP-1R [2],30 nM
same,Emax,human GLP-1R [2],77%
"CC1(Cn2c(CN3CCC(c4cccc(OCc5ccc(Cl)cc5F)n4)CC3)nc3ccc(C(=O)O)cc32)CCOC1 (stereo not shown) [Compound 289B, 2-[(4-{6-[(4-chloro-2-fluorobenzyl)oxy]pyridin-2-yl}piperidin-1-yl)methyl]-1-[(3-methyltetrahydrofuran-3-yl)methyl]-1H-benzimidazole-6-carboxylic acid]",EC50,human GLP-1R [1],1100 nM
same,Emax,human GLP-1R [1]; [3],79%
same,EC50,human GLP-1R [2],36 nM
same,Emax,human GLP-1R [2],73%
"O=C(O)c1ccc2nc(CN3CCC(c4cccc(OCc5ccc(Cl)cc5F)n4)CC3)n(Cc3cn[nH]c3)c2c1 [Compound 290B, 2-[(4-{6-[(4-chloro-2-fluorobenzyl)oxy]pyridin-2-yl}piperidin-1-yl)methyl]-1-(1H-pyrazol-4-ylmethyl)-1H-benzimidazole-6-carboxylic acid]",EC50,human GLP-1R [1],490 nM
same,Emax,human GLP-1R [1]; [3],98%
same,EC50,human GLP-1R [2],44 nM
same,Emax,human GLP-1R [2],72%
"O=C(O)c1ccc2nc(CN3CCC(c4cccc(OCc5ccc(Cl)cc5F)n4)CC3)n(CC3CCC3)c2c1 [Compound 291B, 2-[(4-{6-[(4-chloro-2-fluorobenzyl)oxy]pyridin-2-yl}piperidin-1-yl)methyl]-1-(cyclobutylmethyl)-1H-benzimidazole-6-carboxylic acid]",EC50,human GLP-1R [1],1200 nM
same,Emax,human GLP-1R [1]; [3],82%
same,EC50,human GLP-1R [2],54 nM
same,Emax,human GLP-1R [2],77%
